# US11229709B2, “Dendrimer drug conjugates for sustained intra-articular delivery” (Massachusetts Institute of Technology, priority 2017, dated 2022)
# What was measured:
# [1] = test system: medial tibia cartilage degeneration; assay: Rat surgical osteoarthritis model ACLT+MMx, histological analysis; format: in vivo; design: mean area of degenerated medial tibial cartilage, % of total cartilage area: dose or concentration left out as unconfirmed; details: single intra-articular injection 48 hours after surgery
# Description: (§1) Skeletally mature male Sprague-Dawley rats of 12 weeks of age (350-400 g, Taconic) were injured by the Anterior Cruciate Ligament Transection and Partial Medial Meniscectomy (ACLT+pMMx) method to induce arthritis. […] Treatments were given by intra-articular injection into the affected joint 48 hours after surgery, using a joint concentration of 6 M IGF-1. Rats were sacrificed for analysis 30 days after surgery.
# Histological processing and analysis was performed according to the guidelines for rat surgical models by the Osteoarthritis Research Society International (OARSI) histopathology initiative (Gerwin et al, Osteoarthritis and Cartilage, 2010, Schmitz et al, Osteoarthritis and Cartilage 2010). Six 250 μm frontal step sections were taken from the central ˜1.5 mm of the joint and stained with Toluidine Blue/Fast Green. Aggrecan in healthy cartilage is stained blue (dark) and collagens in bone or degenerated cartilage are stained green (light). The section with the most severe medial tibia cartilage lesion was identified by a blinded investigator and used for all further analysis. Sections were scored quantitatively for degeneration in a blinded manner by histomorphometry techniques based on OARSI histopathology initiative guidelines.
# Degenerated tissue was defined as >50% cell death and loss of toluidine blue staining. […]
# [2] = Joint residence time after intra-articular injection (IVIS imaging); details: rats, calculated from half-life, dose injected and drug EC50
# Text: Prior to injection, knee joints were shaved and disinfected with iodine scrub and 70% ethanol, 3 times. Rats were serially imaged at timepoints using a IVIS Spectrum (Perkin-Elmer) instrument at 640/680 nm. Images were quantified by drawing an anatomical Region of Interest (ROI) around the knee joint, applying to each image, and measuring radiant efficiency within the ROI on Living Image (Perkin-Elmer) software. Data for each treatment group was fit to a single exponential decay curve (FIG. 4C) with a terminal plateau assigned to all groups based on imaging an untreated rat.
# osteophytes = assay: Rat surgical osteoarthritis model ACLT+MMx, micro-computed tomography osteophyte volume; format: in vivo; details: single injection after surgery
# Description: as §1
# After fixation and before decalcification, excised rat joints were attached to the bore of a microCT scanner (GE eXplore CT 120) and scanned at 0.03° angles for a total of 1200 scans over a time period of 1.5 hours. Scans used an 80 kV x-ray potential, 32 mA current, and a 100 ms integration time. Image data sets were reconstructed into regions of interest encompassing single joints using Microview software (Parallax Innovations).
# 3D positioning data were used to quantify total volume of osteophytes (bone spurs) on each joint. 3D DICOM analysis software (Osirix MD) was used by a blinded investigator to re-section the images into a uniform frontal plane, perpendicular to an axis tangential to the femoral condyles and tibial plateau in the sagittal plane and an axis bisecting the femoral condyles and tibial plateau in the transverse plane. […] The sections were then reconstructed to 3D, and total osteophyte ROI volume was calculated for each rat. […]
substance,measurement,setting,value
insulin like growth factor 1 [IGF-1],mean width of cartilage degeneration at the cartilage surface (0% tissue depth),[1]; 30 days after surgery,1390 μm
same,"mean area of degenerated medial tibial cartilage, % of total cartilage area","[1]; joint concentration of IGF-1, 30 days after surgery",19.7%
same,time at relevant (therapeutic) doses in the joint,[2],3 days
same,reduction of osteophyte burden versus untreated,osteophytes,~50%
same,mean total osteophyte volume (burden),"osteophytes; 30 days after surgery, microCT",0.60 mm^3
